This data set in a line: Aqueous solubility (dispersity) by HPLC after stirring and filtration. The class given is physicochemical. Particulars: water, stirred at 25° C. for 10 hours, 0.2 micron filter.
Consider `Nc1ncnc2c1ncn2[C@@H]1O[C@H](CO)[C@@H](O)[C@H]1O` [Adenosine, adenosine], for which the “Aqueous solubility (dispersity)” value was 0.27 % (wt/v).

As to `CC(=O)Oc1cc2c(cc1Cl)C(c1ccccc1C(=O)O)c1cc(Cl)c(OC(C)=O)cc1O2` [DCF-DA, 2′, 7′-dichlorofluorescin diacetate], the “Aqueous solubility (dispersity)” value was 0.004 % (wt/v). On to `C=C1CCN([C@H](C)[C@](O)(Cn2cncn2)c2ccc(F)cc2F)CC1` [Epinaconazole, epinaconazole], for which the “Aqueous solubility (dispersity)” value is given as 0.321 % (wt/v). As for `O=C(Nc1ccc([N+](=O)[O-])cc1Cl)c1cc(Cl)ccc1O` [Niclosamide, niclosamide], the “Aqueous solubility (dispersity)” value is 0.0033 % (wt/v). The value for `C=CC[C@@H]1/C=C(\C)C[C@H](C)C[C@H](OC)[C@H]2O[C@@](O)(C(=O)C(=O)N3CCCC[C@H]3C(=O)O[C@H](/C(C)=C/[C@@H]3CC[C@@H](O)[C@H](OC)C3)[C@H](C)[C@@H](O)CC1=O)[C@H](C)C[C@@H]2OC` [Tacrolimus, tacrolimus] was 7.6 % (wt/v).

The record behind these values is patent publication US20240285528A1, “NANO-MOLECULE AGGREGATE CONSISTING OF ORGANIC MATERIAL, INORGANIC MATERIAL OR SALT THEREOF AND PREPARATION METHOD THEREFOR” (SCAI THERAPEUTICS CO., LTD., priority 2021, published 2024).
